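Step 1: Grow cells in 96-well plates. Step 2: Expose to compound for 48 hours at 5 concentrations. Step 3: Interpolate endpoints linearly; if unreached, use highest concentration. TGI is the concentration that stops growth completely.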
How the values were obtained:
Experiment in all cases: NCI anticancer screen, dose series, 48 h
[1] = test system: EKVX NSCLC
[2] = test system: NCI/ADR-RES ovarian
[3] = test system: BT-549 breast
[4] = test system: SN12C renal
[5] = test system: SNB-19 CNS
[6] = test system: SF-268 CNS
[7] = test system: MDA-MB-435
[8] = test system: PC-3 prostate
[9] = test system: A498 renal
[10] = test system: SF-295 CNS
[11] = test system: RXF 393 renal
[12] = test system: OVCAR-5 ovarian
[13] = test system: MDA-N
[14] = test system: NCI-H460 lung
[15] = test system: COLO 205 colon
[16] = test system: SF-539 CNS
[17] = test system: OVCAR-3 ovarian
[18] = test system: SNB-75 CNS
[19] = test system: CAKI-1 renal
[20] = test system: A549 NSCLC
[21] = test system: HT29 colon
[22] = test system: DU-145 prostate
[23] = test system: HCC-2998 colon
[24] = test system: SK-MEL-2 melanoma
[25] = test system: HL-60(TB) leukemia
[26] = test system: U251 CNS
[27] = test system: NCI-H522 lung
[28] = test system: SK-MEL-5 melanoma
[29] = test system: NCI-H23 lung
[30] = test system: NCI-H226 lung
[31] = test system: UACC-257 melanoma
[32] = test system: LOX IMVI melanoma
[33] = test system: K-562 leukemia
[34] = test system: HCT-116 colon
[35] = test system: 786-0 renal
[36] = test system: MOLT-4 leukemia
[37] = test system: UO-31 renal
[38] = test system: TK-10 renal
[39] = test system: IGROV1 ovarian
[40] = test system: SW-620 colon
[41] = test system: ACHN renal
[42] = test system: M14 melanoma
[43] = test system: KM12 colon
[44] = test system: HCT-15 colon
[45] = test system: HOP-62 NSCLC
[46] = test system: SK-OV-3 ovarian
[47] = test system: UACC-62 melanoma
[48] = test system: MDA-MB-231 breast
[49] = test system: SK-MEL-28 melanoma
[50] = test system: HS 578T breast
[51] = test system: HOP-92 NSCLC
[52] = test system: OVCAR-4 ovarian
[53] = test system: OVCAR-8 ovarian
[54] = test system: CCRF-CEM leukemia
[55] = test system: MALME-3M melanoma
[56] = test system: RPMI-8226 leukemia
[57] = test system: MCF7 breast
[58] = test system: SR leukemia

## CC(OC(C)(C)C)[C@H](NC(=O)OCc1ccccc1)C(=O)NC(OCc1ccccc1)[C@H]1COC(C)(C)O1 (stereo not given in full)
[1]
  TGI: > 10 µM
[2]
  TGI: > 10 µM
[3]
  TGI: > 10 µM
[4]
  TGI: > 10 µM
[5]
  TGI: > 10 µM
[6]
  TGI: > 100 µM
[7]
  TGI: > 10 µM
[8]
  TGI: > 10 µM
[9]
  TGI: > 10 µM
[10]
  TGI: > 10 µM
[11]
  TGI: > 100 µM
[12]
  TGI: > 10 µM
[13]
  TGI: > 10 µM
[14]
  TGI: > 10 µM
[15]
  TGI: > 10 µM
[16]
  TGI: > 10 µM
[17]
  TGI: > 10 µM
[18]
  TGI: > 10 µM
[19]
  TGI: > 10 µM
[20]
  TGI: > 100 µM
[21]
  TGI: > 10 µM
[22]
  TGI: > 100 µM
[23]
  TGI: > 10 µM
[24]
  TGI: > 10 µM
[25]
  TGI: > 10 µM
[26]
  TGI: > 10 µM
[27]
  TGI: > 10 µM
[28]
  TGI: > 10 µM
[29]
  TGI: > 10 µM
[30]
  TGI: > 10 µM
[31]
  TGI: > 10 µM
[32]
  TGI: > 10 µM
[33]
  TGI: > 10 µM
[34]
  TGI: > 100 µM
[35]
  TGI: > 10 µM
[36]
  TGI: > 10 µM
[37]
  TGI: > 10 µM
[38]
  TGI: > 10 µM
[39]
  TGI: > 10 µM
[40]
  TGI: > 10 µM
[41]
  TGI: > 10 µM
[42]
  TGI: > 10 µM
[43]
  TGI: > 10 µM
[44]
  TGI: > 10 µM
[45]
  TGI: > 10 µM
[46]
  TGI: > 10 µM
[47]
  TGI: > 10 µM
[48]
  TGI: > 10 µM
[49]
  TGI: > 100 µM
[50]
  TGI: > 10 µM
[51]
  TGI: > 10 µM
[52]
  TGI: > 10 µM
[53]
  TGI: > 10 µM
[54]
  TGI: > 10 µM
[55]
  TGI: > 10 µM

## CC1CC(NN)=Nc2ccccc2N1 (stereo not given)
[1]
  TGI: > 100 µM
[2]
  TGI: > 100 µM
[3]
  TGI: > 100 µM
[4]
  TGI: > 100 µM
[5]
  TGI: > 100 µM
[6]
  TGI: > 100 µM
[7]
  TGI: > 100 µM
[8]
  TGI: > 100 µM
[9]
  TGI: > 100 µM
[10]
  TGI: > 100 µM
[12]
  TGI: > 100 µM
[13]
  TGI: > 100 µM
[14]
  TGI: > 100 µM
[15]
  TGI: > 100 µM
[17]
  TGI: > 100 µM
[19]
  TGI: > 100 µM
[20]
  TGI: > 100 µM
[21]
  TGI: > 100 µM
[22]
  TGI: > 100 µM
[24]
  TGI: > 100 µM
[25]
  TGI: > 100 µM
[26]
  TGI: > 100 µM
[27]
  TGI: > 100 µM
[28]
  TGI: > 100 µM
[29]
  TGI: > 100 µM
[30]
  TGI: > 100 µM
[31]
  TGI: > 100 µM
[33]
  TGI: > 100 µM
[34]
  TGI: > 100 µM
[35]
  TGI: > 100 µM
[36]
  TGI: > 100 µM
[37]
  TGI: > 100 µM
[38]
  TGI: > 100 µM
[39]
  TGI: > 100 µM
[40]
  TGI: > 100 µM
[41]
  TGI: > 100 µM
[42]
  TGI: > 100 µM
[43]
  TGI: > 100 µM
[44]
  TGI: > 100 µM
[45]
  TGI: > 100 µM
[46]
  TGI: > 100 µM
[47]
  TGI: > 100 µM
[48]
  TGI: > 100 µM
[49]
  TGI: > 100 µM
[50]
  TGI: > 100 µM
[56]
  TGI: > 100 µM
[52]
  TGI: > 100 µM
[53]
  TGI: > 100 µM
[54]
  TGI: > 100 µM
[55]
  TGI: > 100 µM

## COC(=O)C1(C(=O)OC)CC(=O)c2c(OC(=O)c3cccc(OC)c3C#N)ccc(OC(=O)c3cccc(OC)c3C#N)c2C1
[1]
  TGI: > 100 µM
[57]
  TGI: > 100 µM
[2]
  TGI: > 100 µM
[58]
  TGI: > 100 µM
[4]
  TGI: > 100 µM
[5]
  TGI: > 100 µM
[6]
  TGI: > 100 µM
[7]
  TGI: > 100 µM
[8]
  TGI: > 100 µM
[9]
  TGI: > 100 µM
[10]
  TGI: > 100 µM
[11]
  TGI: > 100 µM
[12]
  TGI: > 100 µM
[13]
  TGI: > 100 µM
[14]
  TGI: > 100 µM
[15]
  TGI: > 100 µM
[16]
  TGI: > 100 µM
[17]
  TGI: > 100 µM
[18]
  TGI: > 100 µM
[19]
  TGI: > 100 µM
[20]
  TGI: > 100 µM
[21]
  TGI: > 100 µM
[22]
  TGI: > 100 µM
[23]
  TGI: > 100 µM
[25]
  TGI: > 100 µM
[26]
  TGI: > 100 µM
[27]
  TGI: > 100 µM
[28]
  TGI: > 100 µM
[29]
  TGI: > 100 µM
[30]
  TGI: > 100 µM
[31]
  TGI: > 100 µM
[32]
  TGI: > 100 µM
[33]
  TGI: > 100 µM
[34]
  TGI: > 100 µM
[35]
  TGI: > 100 µM
[36]
  TGI: > 100 µM
[37]
  TGI: > 100 µM
[38]
  TGI: > 100 µM
[39]
  TGI: > 100 µM
[40]
  TGI: > 100 µM
[41]
  TGI: > 100 µM
[42]
  TGI: > 100 µM
[43]
  TGI: > 100 µM
[44]
  TGI: > 100 µM
[45]
  TGI: > 100 µM
[46]
  TGI: > 100 µM
[47]
  TGI: > 100 µM
[48]
  TGI: > 100 µM
[49]
  TGI: > 100 µM
[50]
  TGI: > 100 µM
[56]
  TGI: > 100 µM
[51]
  TGI: > 100 µM
[52]
  TGI: > 100 µM
[53]
  TGI: > 100 µM
[54]
  TGI: > 100 µM
[55]
  TGI: > 100 µM

## CC(C)C1(Cl)CCC2C3(C)CCCC(C)(C(=O)O)C3CC(Cl)C2(Cl)C1Cl (stereo not given)
[1]
  TGI: 91.3 µM
[57]
  TGI: > 100 µM
[2]
  TGI: > 100 µM
[3]
  TGI: > 100 µM
[58]
  TGI: > 100 µM
[4]
  TGI: > 100 µM
[5]
  TGI: > 100 µM
[6]
  TGI: > 100 µM
[7]
  TGI: 62.3 µM
[8]
  TGI: > 100 µM
[9]
  TGI: > 100 µM
[12]
  TGI: 94.7 µM
[13]
  TGI: > 100 µM
[14]
  TGI: 75.2 µM
[15]
  TGI: 37.2 µM
[16]
  TGI: 46.5 µM
[19]
  TGI: > 100 µM
[20]
  TGI: > 100 µM
[21]
  TGI: 50.4 µM
[23]
  TGI: 81.9 µM
[24]
  TGI: > 100 µM
[25]
  TGI: 62.6 µM
[26]
  TGI: 62.5 µM
[27]
  TGI: > 100 µM
[28]
  TGI: 82.5 µM
[29]
  TGI: > 100 µM
[30]
  TGI: 78.6 µM
[31]
  TGI: > 100 µM
[32]
  TGI: > 100 µM
[33]
  TGI: > 100 µM
[34]
  TGI: > 100 µM
[35]
  TGI: > 100 µM
[36]
  TGI: > 100 µM
[37]
  TGI: > 100 µM
[38]
  TGI: > 100 µM
[39]
  TGI: > 100 µM
[40]
  TGI: > 100 µM
[41]
  TGI: > 100 µM
[42]
  TGI: > 100 µM
[43]
  TGI: 37.7 µM
[44]
  TGI: > 100 µM
[47]
  TGI: 84.4 µM
[48]
  TGI: > 100 µM
[49]
  TGI: 72.1 µM
[50]
  TGI: > 100 µM
[56]
  TGI: 62.7 µM
[51]
  TGI: > 100 µM
[52]
  TGI: 84 µM
[53]
  TGI: > 100 µM
[54]
  TGI: > 100 µM
[55]
  TGI: > 100 µM

## NC(=O)C(N)CC12CC3CC(CC(C3)C1)C2 (stereo not given)
[1]
  TGI: 97.5 µM
[57]
  TGI: 44.9 µM
[2]
  TGI: 91.7 µM
[58]
  TGI: 43.5 µM
[4]
  TGI: 41.2 µM
[5]
  TGI: 54.6 µM
[6]
  TGI: 92.5 µM
[7]
  TGI: 44 µM
[8]
  TGI: 51.9 µM
[10]
  TGI: 54.9 µM
[11]
  TGI: 32.5 µM
[12]
  TGI: 42.4 µM
[13]
  TGI: 28.7 µM
[14]
  TGI: > 100 µM
[18]
  TGI: > 100 µM
[19]
  TGI: > 100 µM
[20]
  TGI: > 100 µM
[21]
  TGI: 72.6 µM
[22]
  TGI: 33.7 µM
[23]
  TGI: 49.3 µM
[24]
  TGI: 55 µM
[26]
  TGI: 34.7 µM
[27]
  TGI: 44.4 µM
[28]
  TGI: 28.5 µM
[29]
  TGI: 51.7 µM
[31]
  TGI: 76.7 µM
[32]
  TGI: 29.9 µM
[33]
  TGI: > 100 µM
[34]
  TGI: 30.7 µM
[35]
  TGI: 40.7 µM
[36]
  TGI: 58.1 µM
[37]
  TGI: 44.2 µM
[38]
  TGI: 85.3 µM
[40]
  TGI: > 100 µM
[41]
  TGI: > 100 µM
[42]
  TGI: 37.4 µM
[43]
  TGI: 47.8 µM
[44]
  TGI: > 100 µM
[46]
  TGI: > 100 µM
[47]
  TGI: 28.3 µM
[48]
  TGI: 41.7 µM
[49]
  TGI: 55.4 µM
[50]
  TGI: 42.6 µM
[56]
  TGI: 47.3 µM
[51]
  TGI: 30.4 µM
[52]
  TGI: 64.7 µM
[53]
  TGI: 65.4 µM
[54]
  TGI: 63.7 µM

Reference: PubChem BioAssay (NCI)
